Measured values as given in patent US12258337B2, “Bicyclic CX3CR1 receptor agonists” (Board of Regents, The University of Texas System, priority 2019, dated 2025).

How the values were obtained:
Type in all cases: cell-based
mCX3CR1 = biological target: T1, mCX3CR1 (Mus musculus, UniProt Q9Z0D9); experiment: Ga16 assay, CX3CR1 agonism, Ca2+ sensitive photo-protein readout (FLIPRTETRA); settings: mouse CX3CR1 cell line
T1 construct: expressed in transfected cells; stably expresses a Ca2+ sensitive photo-protein
T1 sequence (Q9Z0D9 1-354): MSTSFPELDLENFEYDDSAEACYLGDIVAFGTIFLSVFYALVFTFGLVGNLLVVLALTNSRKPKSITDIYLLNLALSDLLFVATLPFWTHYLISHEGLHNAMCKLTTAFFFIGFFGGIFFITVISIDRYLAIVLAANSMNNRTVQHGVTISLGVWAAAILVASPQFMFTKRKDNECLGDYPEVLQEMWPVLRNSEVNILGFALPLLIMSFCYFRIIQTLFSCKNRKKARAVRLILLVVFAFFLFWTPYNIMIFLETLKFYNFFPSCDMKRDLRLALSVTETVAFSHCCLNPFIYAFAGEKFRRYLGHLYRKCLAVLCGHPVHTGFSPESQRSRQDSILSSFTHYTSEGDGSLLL
Method in brief: (§1)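 Cells expressing human, mouse or rat CX3CR1 with a stably expressed Ca2+-sensitive photoprotein were loaded with 10 μM coelenterazine in tyrode buffer pH 7.4 for 3 h at room temperature. Agonist-mode luminescence kinetics were recorded for 90 s after compound injection on FLIPRTETRA. Dose-response runs were done in quadruplicate, with fractalkine as the reference agonist.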

rCX3CR1 = biological target: T2, rCX3CR1 (Rattus norvegicus, UniProt P35411); experiment: as above; settings: rat CX3CR1 cell line
T2 construct: expressed in transfected cells; stably expresses a Ca2+ sensitive photo-protein
T2 sequence (P35411 1-354): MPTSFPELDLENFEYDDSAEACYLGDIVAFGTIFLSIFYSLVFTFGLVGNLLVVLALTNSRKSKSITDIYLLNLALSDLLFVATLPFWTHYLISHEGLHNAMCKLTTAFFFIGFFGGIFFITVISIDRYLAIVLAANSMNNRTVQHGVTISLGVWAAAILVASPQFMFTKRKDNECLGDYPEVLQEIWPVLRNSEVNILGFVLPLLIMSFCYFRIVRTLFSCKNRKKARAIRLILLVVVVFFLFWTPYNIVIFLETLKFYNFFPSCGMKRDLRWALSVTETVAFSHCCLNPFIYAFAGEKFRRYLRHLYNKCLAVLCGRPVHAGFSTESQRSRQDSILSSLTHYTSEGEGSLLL
Method in brief: as §1

hCX3CR1 [1] = biological target: T3, hCX3CR1 (Homo sapiens, UniProt P49238); experiment: as above; parameters: expressed in transfected cells; stably expresses a Ca2+ sensitive photo-protein; settings: human CX3CR1 cell line
T3 sequence (P49238 1-355): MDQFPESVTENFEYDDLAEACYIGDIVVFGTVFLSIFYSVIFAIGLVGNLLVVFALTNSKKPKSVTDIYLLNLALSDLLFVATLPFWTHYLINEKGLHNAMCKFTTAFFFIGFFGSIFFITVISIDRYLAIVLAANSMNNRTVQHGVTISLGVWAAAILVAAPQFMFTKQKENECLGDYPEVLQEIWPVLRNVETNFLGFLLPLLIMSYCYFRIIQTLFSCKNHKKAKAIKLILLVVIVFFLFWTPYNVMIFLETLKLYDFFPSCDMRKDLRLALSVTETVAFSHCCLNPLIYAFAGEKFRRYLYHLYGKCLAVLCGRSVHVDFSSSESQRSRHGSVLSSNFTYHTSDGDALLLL
Method in brief: as §1

hCX3CR1 [2] = biological target: T3, hCX3CR1; experiment: ChAMPion assay (CHO ChAMPion/CX3CR1 K1.6, cAMP/CNG channel, photoprotein luminescence); parameters: expressed in transfected cells; stably expresses a Ca2+ sensitive photo-protein; settings: ChAMPion assay, CHO ChAMPion/CX3CR1 K1.6, Forskolin 3 μM; read-out: hCX3CR1 agonism EC50
Method: Buffers and reagents. PBS (D-PBS without calcium and magnesium; EuroClone); Trypsin (Trypsin 0.05%, EDTA 0.02% in PBS; EuroClone); DMSO (Sigma); Tyrode buffer Ca^2+ free: in-house solution (130 mM NaCl, 5 mM KCl, 1 mM MgCl^2, 5 mM NaHCO3, 20 mM HEPES (pH 7.4); sterile filtered and autoclaved); Tyrode buffer 10 mM Ca^2+: in-house solution (130 mM NaCl, 5 mM KCl, 10 mM CaCl2), 1 mM MgCl2, 5 mM NaHCO3, 20 mM HEPES, in water at pH 7.4, sterile filtered); Coelenterazine, native (Biosynth); stock 10 mM; Agonist: Recombinant Human Fractalkine (CX3CL1) (PeproTech); stock: 10 μM in standard Tyrode buffer/BSA 01%; stored at −20° C.
Cell line. The final clone for the hCX3CR1 assay was CHO ChAMPion/CX3CR1 K1.6. ChAMPion technology is based on the co-expression of a Ca^2+ sensitive photoprotein and of a cyclic nucleotide-gated (CNG) channel acting as a cAMP biosensor in a CHO-K1 cell line. CNG channels are non-selective ligand gated cation channels that can be opened by the direct interaction with either cAMP or cGMP, at the intracellular C-terminus site of the channel. Channel opening allows the flux of extracellular calcium into the cell cytoplasm and its transient elevation can be recorded by means of several different calcium indicators. In the chAMPion system, the CNG channel has been modified to display sensitivity to cAMP levels in the physiological range. In addition the calcium influx through the opened channel is immediately detected by the recording of the photoprotein-emitted flash type luminescence signal.
The chAMPion cell line system can monitor the activation of transfected Gαi-coupled receptors, which elicit changes in 3,‘5’-adenosine cyclic monophosphate (cAMP) levels, which in turn is responsible for CNG opening and consequent Ca^2+ influx.
Assay protocol. Experiments were performed in 384 MTP format. Cells were seeded at 10,000 cells/well in 25 μL/well complete growth medium without selection antibiotics in 384-well plates. Twenty-four hours later, cells were assayed for the response to various compounds using the Ca^2+ sensitive photo-protein stably expressed in the cells as readout.
The experiment was performed in a 384-well format according to the following procedure: • 24h after seeding, pre-incubate the cells at room temperature for 1 hour. • Then remove the culture medium. • Load cells with 20 μL/well of Ca^2+ free tyrode buffer+ceolenterazine 5 μM. • Incubate cell plates for 4 hours at RT. • 10 μl/well of 3× concentrated compounds in Ca^2+ free tyrode buffer+Forskolin 9 μM (final Forskolin concentration=3 μM) are applied to the cells (at 10 μl/s). Ten minutes later a second injection is performed: 10 μl/well of Ca^2+ free tyrode buffer+BSA 0.04% (final BSA concentration=0.01%). Twenty minutes later a third injection is performed: 20 μl/well of 10 mM Ca^2+ tyrode buffer (final Ca^2+ concentration was 3.3 mM) and luminescence is recorded for 90 seconds.
Data from FLIPRTETRA measurements are analyzed with the Genedata Screener© software.

EC50 (mCX3CR1)	EC50 (rCX3CR1)	EC50 (hCX3CR1 [1])	EC50 (hCX3CR1 [2])	Structure (SMILES)
58.1 µM	46.7 µM	27.3 µM	4.3 µM	O=C(NCC1(CN2CCCC2)CCC1)c1cc2c(s1)CCCCCCC2 [Example 26, N-[[1-(pyrrolidin-1-ylmethyl)cyclobutyl]methyl]-5,6,7,8,9,10-hexahydro-4H-cyclonona[b]thiophene-2-carboxamide]
15.4 µM	19.6 µM	20.5 µM	6.3 µM	O=C(NCC1(CN2CCCC2)Cc2ccccc2C1)c1cc2c(s1)CCCCCC2 [Example 11, N-[[2-(pyrrolidin-1-ylmethyl)-1,3-dihydroinden-2-yl]methyl]-4,5,6,7,8,9-hexahydrocycloocta[b]thiophene-2-carboxamide]
46.3 µM	47 µM	18.7 µM	4.8 µM	CN(CCO)CC1(CNC(=O)c2cc3c(s2)CCCCCCC3)CCCC1 [Example 29, N-[[1-[[2-hydroxyethyl(methyl)amino]methyl]cyclopentyl]methyl]-5,6,7,8,9,10-hexahydro-4H-cyclonona[b]thiophene-2-carboxamide]
9.1 µM	12.2 µM	13.3 µM	6.2 µM	CCN(CC)CC1(CNC(=O)c2cc3c(s2)CCCCCC3)CCCC1 [Example 12, N-[[1-(diethylaminomethyl)cyclopentyl]methyl]-4,5,6,7,8,9-hexahydrocycloocta[b]thiophene-2-carboxamide]
26.1 µM	44.5 µM	15.7 µM	9.9 µM	CN(C)CC(C)(C)CN(C)C(=O)c1cc2c(s1)CCCCCC2 [Example 7, N-[3-(dimethylamino)-2,2-dimethylpropyl]-N-methyl-4,5,6,7,8,9-hexahydrocycloocta[b]thiophene-2-carboxamide]
17.1 µM	20 µM	16.2 µM	11.2 µM	CCC(CC)(CNC(=O)c1cc2c(s1)CCCCCC2)CN(C)C [Example 8, N-[2-[(dimethylamino)methyl]-2-ethylbutyl]-4,5,6,7,8,9-hexahydrocycloocta[b]thiophene-2-carboxamide]
16.2 µM	15.4 µM	14.6 µM	2.8 µM	O=C(NCC1(CN2CCCC2)CC1)c1cc2c(s1)CCCCCC2 [Example 4, N-[[1-(pyrrolidin-1-ylmethyl)cyclopropyl]methyl]-4,5,6,7,8,9-hexahydrocycloocta[b]thiophene-2-carboxamide]
20.9 µM	19.2 µM	8.8 µM	1.7 µM	O=C(NCC1(CN2CCCC2)CCOCC1)c1cc2c(s1)CCCCCC2 [Example 20, N-[[4-(pyrrolidin-1-ylmethyl)oxan-4-yl]methyl]-4,5,6,7,8,9-hexahydrocycloocta[b]thiophene-2-carboxamide]
15.1 µM	13.7 µM	11.5 µM	1.3 µM	CN(C)CC1(CNC(=O)c2cc3c(s2)CCCCCC3)CCCCC1 [Example 22, N-[[1-[(dimethylamino)methyl]cyclohexyl]methyl]-4,5,6,7,8,9-hexahydrocycloocta[b]thiophene-2-carboxamide]
30.6 µM	27.9 µM	14.3 µM	1.9 µM	CN(C)CC1(CNC(=O)c2cc3c(s2)CCCCCC3)CCOCC1 [Example 19, N-[[4-[(dimethylamino)methyl]oxan-4-yl]methyl]-4,5,6,7,8,9-hexahydrocycloocta[b]thiophene-2-carboxamide]
11.8 µM	14.9 µM	11 µM	4.1 µM	CCC(CC)(CNC(=O)c1cc2c(s1)CCCCCC2)CN1CCCC1 [Example 9, N-[2-ethyl-2-(pyrrolidin-1-ylmethyl)butyl]-4,5,6,7,8,9-hexahydrocycloocta[b]thiophene-2-carboxamide]
15.2 µM	9.3 µM	9.1 µM	1.6 µM	O=C(NCC1(CN2CCC2)CCCC1)c1cc2c(s1)CCCCCC2 [Example 14, N-[[1-(azetidin-1-ylmethyl)cyclopentyl]methyl]-4,5,6,7,8,9-hexahydrocycloocta[b]thiophene-2-carboxamide]
103 µM	19.7 µM	13.6 µM	6.6 µM	CCN(CC)CC(C)(C)CNC(=O)c1cc2c(s1)CCCCCC2 [Example 16, N-[3-(diethylamino)-2,2-dimethylpropyl]-4,5,6,7,8,9-hexahydrocycloocta[b]thiophene-2-carboxamide]
75.1 µM	77.2 µM	21 µM	30 µM	CC(CNC(=O)c1cc2c(s1)CCCCCC2)CN(C)C (stereo not shown) [Example 3, N-[3-(dimethylamino)-2-methylpropyl]-4,5,6,7,8,9-hexahydrocycloocta[b]thiophene-2-carboxamide]
18.1 µM	14.6 µM	15.1 µM	4.5 µM	CCCN(C)CC1(CNC(=O)c2cc3c(s2)CCCCCC3)CCCC1 [Example 6, N-[[1-[[methyl(propyl)amino]methyl]cyclopentyl]methyl]-4,5,6,7,8,9-hexahydrocycloocta[b]thiophene-2-carboxamide]
44.4 µM	22.7 µM	17.4 µM	4 µM	CN(C)CC1(CNC(=O)c2ccc3c(c2)CCCCCC3)CCCC1 [Example 33, N-[[1-[(dimethylamino)methyl]cyclopentyl]methyl]-5,6,7,8,9,10-hexahydrobenzo[8]annulene-3-carboxamide]
